In US20240391862A1, “(1,4,5-TRISUBSTITUTED-1H-PYRAZOL-3-YL)OXY-2-ALKOXY ALKYL ACIDS AND THEIR DERIVATIVES, THEIR SALTS AND THEIR USE AS HERBICIDAL AGENTS” (Bayer AKtiengesellschaft, priority 2021, published 2024):

Key:
[1] = test system: TRZAS; experiment: Post-emergence herbicidal effect and crop plant compatibility, greenhouse pot test; format: in vivo, Triticum aestivum; conditions: 20 g/ha, one-leaf stage, rated visually after about 3 weeks vs untreated controls; for percent crop injury (phytotoxicity) to wheat, post-emergence at 20 g/ha: Triticum aestivum, 504 h, read-out: Post-emergence effect at 20 g/ha against TRZAS in %
Outline: (§1)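 Sandy loam pots, greenhouse. One-leaf stage (2–3 wk after sowing) foliar spray; WP/EC in water + 0.5% additive, 600 l/ha; 20–320 g/ha. Visual score ~3 wk, 0–100% vs untreated.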

[2] = test system: ORYSA; experiment: as above; format: in vivo, Oryza sativa; conditions: for Post-emergence effect against ORYSA: visual rating about 3 weeks after treatment, crop plant; for Post-emergence effect at 320 g/ha against ORYSA in %: one-leaf stage, rated visually after about 3 weeks vs untreated controls
Source text: • ALOMY: Alopecurus myosuroides SETVI: Setaria viridis • AVEFA: Avena fatua POLCO: Fallopia convolvulus • AMARE: Amaranthus retroflexus ECHCG: Echinochloa crus-galli • LOLRJ: Lolium rigidum STEME: Stellaria media • VERPE: Veronica persica MATIN: Tripleurospermum inodorum • DIGSA: Digitaria sanguinalis ABUTH: Abutylon threophrasti • TRZAS: Triticum aestivum VIOTR: Viola tricolor • BRSNW: Brassica napus ZEAMX: Zea mays • PHBPU: Ipomoea purpurea GLXMA: Glycine max • ORYSA: Oryza sativa HORMU: Hordeum murinum
Seeds of monocotyledonous and dicotyledonous weeds and crop plants are placed in sandy loam in plastic or organic planting pots, covered with soil and cultivated in a greenhouse under controlled growth conditions. 2 to 3 weeks after sowing, the trial plants are treated at the one-leaf stage. The compounds of the invention, formulated in the form of wettable powders (WP) or as emulsion concentrates (EC), are then sprayed onto the green parts of the plants as aqueous suspension or emulsion with addition of 0.5% additive at a water application rate of 600 l/ha (converted). After the test plants have been kept in the greenhouse under optimum growth conditions for about 3 weeks, the activity of the preparations is rated visually in comparison to untreated controls. For example, 100% activity=the plants have died, 0% activity=like control plants.
Tables 20a to 38c below show the effects/crop compatibilities of selected compounds of the general formula (I) on various harmful plants at an application rate corresponding to 20 to 320 g/ha, which were obtained by the trial procedure specified above.

[3] = test system: ABUTH; experiment: Post-emergence herbicidal effect, greenhouse pot test; format: in vivo, Abutilon theophrasti; conditions: visual rating about 3 weeks after treatment
Outline: (§2)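 Visual % activity scored roughly 3 weeks post-spray against untreated plants, where 100% means death and 0% equals control. Plants were treated at the one-leaf stage, 2 to 3 weeks after sowing in sandy loam, at 20 to 320 g/ha.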

[4] = test system: ALOMY; experiment: as above; format: in vivo, Alopecurus myosuroides; conditions: 320 g/ha, visual rating about 3 weeks after treatment
Outline: as §2

[5] = test system: AMARE; experiment: as above; format: in vivo, Amaranthus retroflexus; conditions: visual rating about 3 weeks after treatment; for pest or weed control at 320 g/ha: Amaranthus retroflexus, 504 h, read-out: Post-emergence effect against AMARE
Outline: as §2

[6] = test system: AVEFA; experiment: as above; format: in vivo, Avena fatua; conditions: visual rating about 3 weeks after treatment
Outline: as §2

[7] = test system: DIGSA; experiment: as above; format: in vivo, Digitaria sanguinalis; conditions: 320 g/ha, visual rating about 3 weeks after treatment
Outline: as §2

[8] = test system: ECHCG; experiment: as above; format: in vivo, Echinochloa crus-galli
Outline: as §2

[9] = test system: MATIN; experiment: as above; format: in vivo, Tripleurospermum inodorum
Outline: as §2

[10] = test system: PHBPU; experiment: as above; format: in vivo, Ipomoea purpurea
Outline: as §2

[11] = test system: POLCO; experiment: as above; format: in vivo, Fallopia convolvulus; conditions: for pest or weed control at 320 g/ha: Fallopia convolvulus, 504 h, read-out: Post-emergence effect against POLCO in %
Outline: as §2

[12] = test system: SETVI; experiment: as above; format: in vivo, Setaria viridis
Outline: as §2

[13] = test system: VERPE; experiment: as above; format: in vivo, Veronica persica
Outline: as §2

[14] = test system: VIOTR; experiment: as above; format: in vivo, Viola tricolor
Outline: as §2

[15] = test system: ZEAMX; experiment: Post-emergence herbicidal effect and crop plant compatibility, greenhouse pot test; format: in vivo, Zea mays; conditions: one-leaf stage, rated visually after about 3 weeks vs untreated controls
Outline: as §1

[16] = test system: LOLRI; experiment: Post-emergence herbicidal effect, greenhouse pot test; format: in vivo, Lolium rigidum; conditions: Lolium rigidum, 504 h, 320 g/ha, read-out: Post-emergence effect against LOLRI in %
Outline: as §2

[17] = Echinochloa crus-galli, 504 h, 320 g/ha, read-out: Post-emergence effect against ECHCG in %
[18] = Ipomoea purpurea, 504 h, 320 g/ha, read-out: Post-emergence effect against PHBPU in %
[19] = Setaria viridis, 504 h, 320 g/ha, read-out: Post-emergence effect against SETVI in %

COC(=O)C(OC)Oc1nn(-c2cccc(Cl)c2F)c(-c2cncc(F)c2)c1I (centres unmarked) [Example I-19]
Post-emergence effect at 20 g/ha against TRZAS in % [1]: 20% | Post-emergence effect against ORYSA ([2]; 20 g/ha): 0% | Post-emergence effect against ORYSA ([2]; 80 g/ha): 0% | Post-emergence effect at 320 g/ha against ORYSA in % [2]: 20% | Post-emergence effect against ABUTH ([3]; 80 g/ha): 90% | Post-emergence effect against ABUTH ([3]; 320 g/ha): 90% | Post-emergence effect against ALOMY [4]: 80% | Post-emergence effect against AMARE ([5]; 80 g/ha): 80% | Post-emergence effect against AMARE ([5]; 320 g/ha): 80% | Post-emergence effect against AVEFA ([6]; 320 g/ha): 80% | Post-emergence effect against DIGSA [7]: 90% | Post-emergence effect against ECHCG in % ([8]; 80 g/ha): 80% | Post-emergence effect against ECHCG in % ([8]; 320 g/ha): 90% | Post-emergence effect against MATIN in % ([9]; 320 g/ha): 80% | Post-emergence effect against PHBPU in % ([10]; 20 g/ha): 80% | Post-emergence effect against PHBPU in % ([10]; 80 g/ha): 90% | Post-emergence effect against PHBPU in % ([10]; 320 g/ha): 90% | Post-emergence effect against POLCO in % ([11]; 80 g/ha): 80% | Post-emergence effect against POLCO in % ([11]; 320 g/ha): 80% | Post-emergence effect against SETVI in % ([12]; 320 g/ha): 80% | Post-emergence effect against VERPE in % ([13]; 80 g/ha): 80% | Post-emergence effect against VERPE in % ([13]; 320 g/ha): 80% | Post-emergence effect against VIOTR in % ([14]; 80 g/ha): 80% | Post-emergence effect against VIOTR in % ([14]; 320 g/ha): 80%

COC(Oc1nn(-c2ccccc2F)c(-c2ccc(F)nc2)c1Br)C(=O)O (centres unmarked) [Example I-24]
Post-emergence effect at 20 g/ha against ZEAMX in % ([15]; 20 g/ha): 0% | Post-emergence effect at 80 g/ha against ZEAMX in % ([15]; 80 g/ha): 10% | plant injury at 320 g/ha ([15]; Zea mays, 504 h, 320 g/ha, read-out: Post-emergence effect at 320 g/ha against ZEAMX in %): 20% | Post-emergence effect at 20 g/ha against TRZAS in % [1]: 0% | Post-emergence effect at 320 g/ha against ORYSA in % [2]: 10%

COC(=O)C(OC)Oc1nn(-c2cc(F)ccc2F)c(-c2cncc(F)c2)c1I (centres unmarked) [Example I-28]
percent crop injury (phytotoxicity) to wheat, post-emergence at 20 g/ha [1]: 20% | Post-emergence effect at 320 g/ha against ORYSA in % [2]: 20% | pest or weed control at 80 g/ha ([3]; Abutilon theophrasti, 504 h, 80 g/ha, read-out: Post-emergence effect against ABUTH): 90% | pest or weed control at 320 g/ha ([3]; Abutilon theophrasti, 504 h, 320 g/ha, read-out: Post-emergence effect against ABUTH): 100% | pest or weed control at 320 g/ha ([4]; Alopecurus myosuroides, 504 h, read-out: Post-emergence effect against ALOMY): 90% | pest or weed control at 320 g/ha ([5]; 320 g/ha): 80% | pest or weed control at 80 g/ha ([6]; Avena fatua, 504 h, 80 g/ha, read-out: Post-emergence effect against AVEFA): 80% | pest or weed control at 320 g/ha ([6]; Avena fatua, 504 h, 320 g/ha, read-out: Post-emergence effect against AVEFA): 90% | pest or weed control at 320 g/ha ([7]; Digitaria sanguinalis, 504 h, read-out: Post-emergence effect against DIGSA): 80% | pest or weed control at 80 g/ha ([8]; Echinochloa crus-galli, 504 h, 80 g/ha, read-out: Post-emergence effect against ECHCG in %): 90% | pest or weed control at 320 g/ha [8, 17]: 90% | pest or weed control at 320 g/ha [16]: 90% | pest or weed control at 20 g/ha ([9]; Tripleurospermum inodorum, 504 h, 20 g/ha, read-out: Post-emergence effect against MATIN in %): 80% | pest or weed control at 80 g/ha ([9]; Tripleurospermum inodorum, 504 h, 80 g/ha, read-out: Post-emergence effect against MATIN in %): 90% | pest or weed control at 320 g/ha ([9]; Tripleurospermum inodorum, 504 h, 320 g/ha, read-out: Post-emergence effect against MATIN in %): 90% | pest or weed control at 20 g/ha ([10]; Ipomoea purpurea, 504 h, 20 g/ha, read-out: Post-emergence effect against PHBPU in %): 80% | pest or weed control at 80 g/ha ([10]; Ipomoea purpurea, 504 h, 80 g/ha, read-out: Post-emergence effect against PHBPU in %): 90% | pest or weed control at 320 g/ha [10, 18]: 90% | pest or weed control at 320 g/ha ([11]; 320 g/ha): 80% | pest or weed control at 80 g/ha ([12]; Setaria viridis, 504 h, 80 g/ha, read-out: Post-emergence effect against SETVI in %): 80% | pest or weed control at 320 g/ha [12, 19]: 90% | pest or weed control at 320 g/ha ([13]; Veronica persica, 504 h, 320 g/ha, read-out: Post-emergence effect against VERPE in %): 80% | pest or weed control at 20 g/ha ([14]; Viola tricolor, 504 h, 20 g/ha, read-out: Post-emergence effect against VIOTR in %): 80% | pest or weed control at 80 g/ha ([14]; Viola tricolor, 504 h, 80 g/ha, read-out: Post-emergence effect against VIOTR in %): 90% | pest or weed control at 320 g/ha ([14]; Viola tricolor, 504 h, 320 g/ha, read-out: Post-emergence effect against VIOTR in %): 90%

COC(=O)C(OC)Oc1nn(-c2cnccn2)c(-c2ccc(F)nc2)c1Br (centres unmarked) [Example I-36]
percent crop injury (phytotoxicity) to wheat, post-emergence at 20 g/ha [1]: 20% | Post-emergence effect at 320 g/ha against ORYSA in % [2]: 20% | pest or weed control at 320 g/ha ([5]; 320 g/ha): 80% | pest or weed control at 320 g/ha [8, 17]: 90% | pest or weed control at 320 g/ha [16]: 80% | pest or weed control at 320 g/ha [10, 18]: 80% | pest or weed control at 320 g/ha ([11]; 320 g/ha): 80% | pest or weed control at 320 g/ha [12, 19]: 80%
